{"source": "patent US20240277697A1", "about": "“METHODS OF TREATING OR PREVENTING CONDITIONS ASSOCIATED WITH OPIATE WITHDRAWAL OR OPIATE RELAPSE” (Proniras Corporation, priority 2021, published 2024)", "type_in_all_cases": "in vivo", "key": {"[1]": {"system": "oxycodone withdrawal in mice", "assay": "Oxycodone-precipitated (naloxone) withdrawal in mice", "settings": "mice chronically administered oxycodone", "method": "(§1) Statistical analyses. All statistical analyses were performed using Prism 7 (GraphPad Software, La Jolla, CA, USA). Data were analyzed with analysis of variance (ANOVA) followed by the Tukey test for multiple comparisons when appropriate. To determine whether treatment with tezampanel affected oxycodone withdrawal, results with its dosage groups (i.e., chronic oxycodone+tezampanel) were compared to the chronic oxycodone+vehicle treatment group. To determine if tezampanel exerted effects by itself in non-dependent mice, results with the chronic saline+10 mg/kg tezampanel group were compared to the chronic saline+vehicle group. Student's T tests were used for analyzing locomotor activity results. Statistical significance was inferred for all tests when p<0.05.\nFIGS. 3A-3D show total withdrawal signs, paw tremors, jumps, and percent body weight loss, respectively. ANOVA results indicated statistically significant total number of signs [F(5,42)=33.78; p<0.0001] (FIG. 3A), paw tremors [F(5,42)=10.85; p<0.0001] (FIG. 3B), jumps [F (5, 42)=22.77; p<0.0001] (FIG. 3C) and loss of body weight [F (5, 42)=4.694; p=0.0017] (FIG. 3D)."}, "C57BL/6J mice": {"system": "C57BL/6J mice", "assay": "Mouse locomotor activity (photocell activity cages)", "method": "Male experimentally naive C57BL/6J mice were placed into individual Omnitech photocell activity cages (28×16.5 cm) 30 min after intraperitoneal (i.p.) administration of either vehicle (n=6) or tezampanel at 10 mg/kg (n=7). Interruptions of the photocell beams (two banks of eight cells each) were then recorded for the next 30 min. Data were expressed as number of photocell interruptions.\nas §1"}, "Long-Evans hooded rats": {"system": "Long-Evans hooded rats", "assay": "Oxycodone prime-induced reinstatement of extinguished oxycodone-reinforced lever pressing in rats", "settings": "for mean (S.E.M.) active lever presses during reinstatement test session: 0.1 mg/kg s.c. oxycodone prime, vehicle 35.42", "method": "Tezampanel was tested for its ability to reduce prime-induced reinstatement of extinguished, oxycodone-reinforced lever pressing in rats. Tezampanel doses of 0 (vehicle), 3, and 10 mg/kg were solubilized in a sterile water vehicle and administered i.p. 30 min prior to testing.\nAdult male Long-Evans hooded rats (Envigo, Indianapolis, IN) weighing 275-300 g upon delivery were used. When not in testing, rats were individually housed in standard plastic rodent cages in a temperature-controlled (22° C.), AAALAC-accredited facility in which they had ad libitum access to water. The rats were allowed ad libitum rat chow for at least one week prior to the commencement of training, after which they were maintained at 320 g by controlled feedings. The rats were maintained on a 12-h/12-h reversed light-dark cycle (0600-1800 lights off) for the duration of the experiment, and they were trained and tested during the dark segment of this cycle.\nOxycodone self-administration training sessions were conducted five days per week (M-F) for 3 h daily. […] For the duration of the infusion, the tone sounded, and the stimulus lights above both levers flashed at 3 Hz.\nSelf-administration training continued until these criteria had been met: 1) at least 12 self-administration sessions had occurred; 2) at least 15 oxycodone infusions had occurred during each of the last four sessions; 3) at least 125 lifetime oxycodone infusions had been obtained; 4) at least 50 active lever responses on the last three days of self-administration had been emitted; and 5) there were no increasing or decreasing trends in active lever responses during the last three sessions of self-administration, after which extinction training began. Subsequently, twelve 3-h daily (Mon-Sun) extinction sessions were conducted. During extinction sessions, the house light was illuminated, and the levers were extended, but infusions were not administered nor did any other scheduled stimulus change occur (i.e., neither Sonalert® activations nor stimulus light illuminations occurred). Rats were considered eligible for reinstatement testing provided that the mean number of active-lever presses during the last 3 sessions of extinction was lower than the mean number of active-lever presses during the first 3 sessions of extinction.\nA six-day incubation period during which rats remained in their home cages followed extinction training. Oxycodone prime reinstatement testing immediately followed this incubation period (i.e., on the seventh day following the 12th day of extinction training). Conditions during prime reinstatement testing were identical to those during extinction except that either 3 or 10 mg/kg Tezampanel or its vehicle was administered 30 min prior to the reinstatement test session. […]"}, "[2]": {"settings": "10 mg/kg intraperitoneal, naloxone on test day, vs oxycodone+vehicle"}}, "note": "Values joined by “and” are separate entries in the source; they are usually repeats but may differ in a detail not shown here. Identical values can stand only once."}
{"smiles": "O=C(O)[C@@H]1C[C@H]2C[C@@H](CCc3nn[nH]n3)CC[C@H]2CN1", "note": "[Tezampanel, (3S,4aR,6R,8aR)-6-[2-(1H-tetrazol-5-yl)ethyl]decahydroisoquinoline-3-carboxylic acid]", "values": [{"measurement": "jumps", "setting": "[1]; [2]", "result": "attenuated"}, {"measurement": "paw tremors", "setting": "[1]; [2]", "result": "attenuated"}, {"measurement": "total number of withdrawal signs", "setting": "[1]; [2]", "result": "attenuated"}, {"measurement": "withdrawal-induced body weight loss", "setting": "[1]; at the doses tested", "result": "failed to attenuate"}, {"measurement": "observational comments on behaviour", "setting": "C57BL/6J mice; 10 mg/kg dose, mice", "result": "slowed, unsteady locomotion and low activity rates"}, {"measurement": "No. of Interruptions (±S.E.M.)", "setting": "C57BL/6J mice; 10 mg/kg intraperitoneal, 30 min before, photocell interruptions over 30 min, n=7", "result": "663.7 ± 87.0"}, {"measurement": "locomotor activity compared to vehicle-treated group", "setting": "C57BL/6J mice; 10 mg/kg intraperitoneal, naive mice, p<0.0001", "result": "significantly reduced"}, {"measurement": "mean (S.E.M.) active lever presses during reinstatement test session", "setting": "Long-Evans hooded rats; 3 mg/kg i.p. 30 min prior", "result": "15.55 (+3.022) and 15.55 (±3.022)"}, {"measurement": "mean (S.E.M.) active lever presses during reinstatement test session", "setting": "Long-Evans hooded rats; 10 mg/kg i.p. 30 min prior", "result": "13.00 (+2.537) and 13.00 (±2.537)"}, {"measurement": "reinstated response levels relative to vehicle-control", "setting": "Long-Evans hooded rats; 3 and 10 mg/kg i.p.", "result": "significantly decreased"}, {"measurement": "reinstatement relative to last extinction session", "setting": "Long-Evans hooded rats; 3 and 10 mg/kg i.p.", "result": "prevented oxycodone prime injections from eliciting effective reinstatement"}]}
